For this test, the target named is T1, human mAChR M1 (Homo sapiens, UniProt P11229).
T1 sequence (P11229 1-460): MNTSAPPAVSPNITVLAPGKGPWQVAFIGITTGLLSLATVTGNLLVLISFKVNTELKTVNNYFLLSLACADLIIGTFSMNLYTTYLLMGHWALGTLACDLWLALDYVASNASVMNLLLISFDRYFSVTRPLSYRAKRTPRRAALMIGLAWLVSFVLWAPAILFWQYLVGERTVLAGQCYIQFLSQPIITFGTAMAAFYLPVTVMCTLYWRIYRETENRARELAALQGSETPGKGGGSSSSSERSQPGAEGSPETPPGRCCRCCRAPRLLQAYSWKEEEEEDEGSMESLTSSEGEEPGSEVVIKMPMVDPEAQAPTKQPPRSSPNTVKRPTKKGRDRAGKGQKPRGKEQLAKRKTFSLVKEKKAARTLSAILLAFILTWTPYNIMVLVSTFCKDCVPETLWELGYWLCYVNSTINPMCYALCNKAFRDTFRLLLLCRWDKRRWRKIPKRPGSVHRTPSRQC
Briefly: mAChR M1 cell-based functional assay (calcium mobilization, PAM activity). The following applies: CHO-K1 cells expressing hM1, calcium flux (Fluo-4); for EC50: concentration-dependent increase in the EC20 acetylcholine response; for Emax: potentiation of EC20 acetylcholine response. In short, it runs like this:
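CHO-K1 cells stably expressing hM1, Fluo-4 AM-loaded; compounds (11-point 1:3 CRC) added, then acetylcholine at EC20 (144 s) and EC80 (230 s). Calcium flux read by FDSS fluorescence ratio; PAM activity is the concentration-dependent increase in the EC20 ACh response, Emax relative to ACh maximum; four-parameter logistic fit.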

In patent US20200131180A1, “POSITIVE ALLOSTERIC MODULATORS OF THE MUSCARINIC ACETYLCHOLINE RECEPTOR M1” (Vanderbilt University, priority 2018, published 2020) one finds EC50 and Emax data, which are given here for 13 compounds.

As for `Cn1ccc(-c2ccc(Cc3cc(C(=O)NC4CCOCC4)c4nccn4c3)cc2)n1` [compound 1, 6-[[4-(1-methylpyrazol-3-yl)phenyl]methyl]-N-tetrahydropyran-4-yl-imidazo[1,2-a]pyridine-8-carboxamide], the EC50 was 6340 nM and the Emax was found to be 68%.

Take `Cn1ccc(-c2ccc(Cc3cc(C(=O)N[C@H]4CCCC[C@@H]4O)c4ncnn4c3)cc2)n1` [compound 7, N-[(1S,2S)-2-hydroxycyclohexyl]-6-[[4-(1-methylpyrazol-3-yl)phenyl]methyl]-[1,2,4]triazolo[1,5-a]pyridine-8-carboxamide]: the concentration giving a half-maximal response (EC50) was 483 nM and the Emax was 86%.

As for `Cc1c(Cc2ccc(-c3cnn(C)c3)cc2F)cc(C(=O)N[C@H]2CCOC[C@@H]2O)c2nccn12` [compound 56, 6-[[2-fluoro-4-(1-methylpyrazol-4-yl)phenyl]methyl]-N-[(3R,4S)-3-hydroxytetrahydropyran-4-yl]-5-methyl-imidazo[1,2-a]pyridine-8-carboxamide], the EC50 was determined as 32.2 nM and the maximal effect (Emax) came to 72%.

Consider `O=C(N[C@H]1CCOC[C@@H]1O)c1cc(Cc2ccc(-n3cccn3)cc2)cc2ncnn12` [compound 18, N-[(3R,4S)-3-hydroxytetrahydropyran-4-yl]-7-[(4-pyrazol-1-ylphenyl)methyl]-[1,2,4]triazolo[1,5-a]pyridine-5-carboxamide], for which the EC50 is 4440 nM and the Emax amounted to 81%.

Regarding `Cn1ccc(-c2ccc(Cc3cc(C(=O)N[C@@H]4CCC[C@H]4O)c4nccn4c3)cc2)n1` [compound 4, N-[(1R,2R)-2-hydroxycyclopentyl]-6-[[4-(1-methylpyrazol-3-yl)phenyl]methyl]imidazo[1,2-a]pyridine-8-carboxamide], the EC50 came out at 1500 nM and the Emax worked out at 80%.

On to `O=C(N[C@H]1CCCC[C@@H]1O)c1cc(Cc2ccc(C(F)(F)F)nc2)cn2ccnc12` [compound 64, N-[(1S,2S)-2-hydroxycyclohexyl]-6-[[6-(trifluoromethyl)-3-pyridyl]methyl]imidazo[1,2-a]pyridine-8-carboxamide], for which the Emax came to 46%.

As for `Cn1cc(-c2cc(F)c(Cc3cc(C(=O)N[C@H]4CCOC[C@@H]4O)c4ncnn4c3)c(F)c2)cn1` [compound 43, 6-[[2,6-difluoro-4-(1-methylpyrazol-4-yl)phenyl]methyl]-N-[(3R,4S)-3-hydroxytetrahydropyran-4-yl]-[1,2,4]triazolo[1,5-a]pyridine-8-carboxamide], the EC50 was 691 nM and the Emax was determined as 84%.

Regarding `Cn1ccc(-c2ccc(Cc3cc(C(=O)N[C@@H]4CC[C@H]4O)c4ncnn4c3)cc2)n1` [compound 10, N-[(1R,2R)-2-hydroxycyclobutyl]-6-[[4-(1-methylpyrazol-3-yl)phenyl]methyl]-[1,2,4]triazolo[1,5-a]pyridine-8-carboxamide], the EC50 is 4070 nM and the Emax stood at 74%.

On to `O=C(N[C@H]1CCOC[C@@H]1O)c1cc(Cc2ccc(C(F)(F)F)nc2)cn2ccnc12` [compound 66, N-[(3R,4S)-3-hydroxytetrahydropyran-4-yl]-6-[[6-(trifluoromethyl)-3-pyridyl]methyl]imidazo[1,2-a]pyridine-8-carboxamide], for which the Emax was 36%.

Take `Cn1ccc(-c2ccc(Cc3cc(C(=O)N[C@H]4CCCC[C@@H]4O)c4ncnn4c3)cn2)n1` [compound 37, N-[(1S,2S)-2-hydroxycyclohexyl]-6-[[6-(1-methylpyrazol-3-yl)-3-pyridyl]methyl]-[1,2,4]triazolo[1,5-a]pyridine-8-carboxamide]: the EC50 was found to be 3540 nM and the Emax came to 83%.

With `Cn1cc(-c2ccc(Cc3cc(C(=O)N[C@H]4CCCC[C@@H]4O)c4ncnn4c3)cc2)cn1` [compound 31, N-[(1S,2S)-2-hydroxycyclohexyl]-6-[[4-(1-methylpyrazol-4-yl)phenyl]methyl]-[1,2,4]triazolo[1,5-a]pyridine-8-carboxamide], the EC50 turned out to be 739 nM and the Emax was found to be 89%.

For `Cn1cc(-c2ccc(Cc3cc(C(=O)NC4CCOCC4)c4ncnn4c3)cn2)cn1` [compound 14, 6-[[6-(1-methylpyrazol-4-yl)-3-pyridyl]methyl]-N-tetrahydropyran-4-yl-[1,2,4]triazolo[1,5-a]pyridine-8-carboxamide], the Emax stood at 45%.

As to `Cn1cc(-c2ccc(Cc3cc(C(=O)N[C@H]4CCOC[C@@H]4O)c4ncnn4c3)cn2)cn1` [compound 12, N-[(3R,4S)-3-hydroxytetrahydropyran-4-yl]-6-[[6-(1-methylpyrazol-4-yl)-3-pyridyl]methyl]-[1,2,4]triazolo[1,5-a]pyridine-8-carboxamide], the EC50 is 903 nM and the maximal response (Emax) worked out at 83%.
